Tested on: cultured human gingival tissues
Format: in vitro ADME
Conditions: as excipient in naloxone ODF
Experimental: Each ODF sample was die-cut into 1 inch (2.54 cm) diameter discs (area, 5.067 cm^2). To simulate the oral mucosa, an in vitro oral mucosa 3D model produced from primary human gingival keratinocytes was used (SkinAxis, LLC, North Brunswick, N.J., USA). Briefly, the cultured human gingival tissues were incubated in 6-well plates at 37° C. in a CO2 incubator. To prepare the receiver fluid, 0.3 mL of prewarmed phosphate buffered solution at pH 6.8 was pipetted into each well. Next, 0.5 mL of donor solution or the die-cut discs were placed onto the tissues. The plates were returned to the incubator for 15 minutes. The tissues were moved to the next wells and the receiver media was collected. This was repeated for the remaining time points. The receiver media was analyzed by HPLC in a 5 μm, 4.6×50 mm KINETEX C18 column (Phenomenex, Inc., Torrance, Calif., USA) using art standard protocols. Briefly, the mobile phase comprised 50 mM NH4Ac/Acetonitrile at 88/22. The flow rate was 1.0 mL/min and the column temperature was about 40° C. with a UV of 220 nm and a retention time of 1.8 min.

CCCCCCCC/C=C\CCCCCCCCO [oleyl alcohol, Oleyl alcohol]
effect of permeation enhancer on permeation percentage of the naloxone: increased the permeation percentage of the naloxone

Source: US20180228728A1, “DOSAGE FORM FOR ADMINISTRATION OF OPIOID ANTAGONISTS” (priority 2017, published 2018)
